The test relates to FOXM1 and PD-L1. In words: Immunoblotting of FOXM1 and PD-L1 after FDI-6 or RCM1 treatment. It is filed as cell-based, human. Particulars: lung cancer cell line (PC9) and colorectal cancer cell line (SW480).

Description: Human lung cancer cell lines (H1299, PC9), colorectal cancer cell lines (HCT116, SW480), and brain tumor cell lines (U118) were purchased from the American Type Culture Collection (Manassas, VA, USA). H1299, PC9, U118, and SW480 cells were cultured in Roswell Park Memorial Institute (RPMI) medium supplemented with 10% FBS and 1% penicillin/streptomycin, and HCT116 cells were cultured in McCoy's 5A medium supplemented with 10% FBS and 1% penicillin/streptomycin. Cells were maintained at 37° C. in a humidified incubator with 5% CO2.
After washing, appropriate secondary antibodies conjugated to horseradish peroxidase were bound to the membrane, and protein bands were detected using a chemiluminescence kit (Thermo Fisher Scientific, Carlsbad, CA, USA).

Take `Nc1c(C(=O)Nc2ccc(F)cc2)sc2nc(-c3cccs3)cc(C(F)(F)F)c12` [FDI-6]: the “FOXM1 and PD-L1 expression” value is listed as “significantly decreased”.
